One block for each molecule: values may come before it.
Key:
[1] = test system: FKRAS (DNA, i motif) GCCCGGCCCCCGCTCCTCCCCCGCCGGCCCGGCCCGGCCCCCTCCTTCTCCCCG; test: MST; conditions: 100 mM KCl (annealing buffer); 1 μM DNA; assay pH not stated
[2] = test system: KRAS (DNA, i motif) GCCCGGCCCCCGCTCCTCCCCCGCCGGCCCGGCCCGGCCCCCTCCTTCTCCCCG; test: TO displacement, fluorescence; conditions: 100 mM KCl (annealing buffer); 1 μM DNA, 2 μM thiazole orange displaced; assay pH not stated
[3] = test system: FPDGFR-β (DNA, i motif) GCGTCCACCCTCCCTGCCCCGCCGCCCCCCCTTCTCCCAGC; test: MST; conditions: 100 mM KCl (annealing buffer); 1 μM DNA; assay pH not stated
[4] = test system: biotin-Pu24 (VEGF G-quadruplex) (DNA, G4) CCGGGGCGGGCCGGGGGCGGGGTC; test: SPR; conditions: 100 mM KCl; 20 mM Tris-HCl pH 7.4, 25 °C; tested up to 50 μM
[5] = test system: biotin-Hairpin (duplex DNA) (DNA, hairpin, HEG linker between nucleotides 10 and 11 (joins the two TATAGCTATA halves)) TATAGCTATATATAGCTATA; test: SPR; conditions: 100 mM KCl; 20 mM Tris-HCl pH 7.4, 25 °C; tested up to 50 μM
[6] = test system: FBCL2 (DNA, i motif) CAGCCCCGCTCCCGCCCCCTTCCTCCCGCGCCCGCCCCT; test: MST; conditions: 100 mM KCl (annealing buffer); 1 μM DNA; assay pH not stated
[7] = test system: biotin-Py24 (VEGF i-motif) (DNA, i motif) GACCCCGCCCCCGGCCCGCCCCGG; test: SPR; conditions: 100 mM KCl, 20 mM MES pH 5.5, 0.05% Tween-20, 25 °C
[8] = test system: Py24 (VEGF i-motif) (DNA, i motif) GACCCCGCCCCCGGCCCGCCCCGG; test: ITC; conditions: 100 mM KCl, 30 mM KH2PO4, 30 mM K2HPO4; 1× BPES (1 mM EDTA) pH 5.0, 30 °C; Py24 titrated into 3c; one-site fit
[9] = test system: c-kit (DNA, i motif) CCCCTCCCTCGCGCCCGCCCG; test: TO displacement, fluorescence; conditions: 100 mM KCl (annealing buffer); 1 μM DNA, 2 μM thiazole orange displaced; assay pH not stated
[10] = test system: PDGFR-β (DNA, i motif) GCGTCCACCCTCCCTGCCCCGCCGCCCCCCCTTCTCCCAGC; test: TO displacement, fluorescence; conditions: 100 mM KCl (annealing buffer); 1 μM DNA, 2 μM thiazole orange displaced; b21 gives lower bound of range as 8.01
[11] = test system: FPu24 (DNA, G4) CCGGGGCGGGCCGGGGGCGGGGTC; test: MST; conditions: 100 mM KCl (annealing buffer); 1 μM DNA; assay pH not stated
[12] = test system: FPy24 (DNA, i motif) GACCCCGCCCCCGGCCCGCCCCGG; test: MST; conditions: 100 mM KCl (annealing buffer); 1 μM DNA; assay pH not stated
[13] = test system: Fc-kit (DNA, i motif) CCCCTCCCTCGCGCCCGCCCG; test: MST; conditions: 100 mM KCl (annealing buffer); 1 μM DNA; assay pH not stated
[14] = test system: BCL2 (DNA, i motif) CAGCCCCGCTCCCGCCCCCTTCCTCCCGCGCCCGCCCCT; test: TO displacement, fluorescence; conditions: 100 mM KCl (annealing buffer); 1 μM DNA, 2 μM thiazole orange displaced; assay pH not stated
[15] = test system: FHairpin (duplex DNA) (DNA, hairpin, HEG linker between nucleotides 10 and 11 (joins the two TATAGCTATA halves)) TATAGCTATATATAGCTATA; test: MST; conditions: 1 μM DNA; assay buffer not stated
[16] = test system: Pu24 (VEGF G-quadruplex) (DNA, G4) CCGGGGCGGGCCGGGGGCGGGGTC; test: TO displacement, fluorescence; conditions: 100 mM KCl (annealing buffer); 1 μM DNA, 2 μM thiazole orange displaced; assay pH not stated
[17] = test system: Py24 (VEGF i-motif) (DNA, i motif) GACCCCGCCCCCGGCCCGCCCCGG; test: TO displacement, fluorescence; conditions: 100 mM KCl (annealing buffer); 1 μM DNA, 2 μM thiazole orange displaced; assay pH not stated
[18] = test system: biotin-Pu24 (VEGF G-quadruplex) (DNA, G4) CCGGGGCGGGCCGGGGGCGGGGTC; test: SPR; conditions: 100 mM KCl; 20 mM Tris-HCl pH 7.4, 25 °C; tested up to 50 μM; remark: listed apart in the source
[19] = test system: biotin-Hairpin (duplex DNA) (DNA, hairpin, HEG (hexaethylene glycol) linker between 10 and 11) TATAGCTATATATAGCTATA; test: SPR; conditions: 100 mM KCl; 20 mM Tris-HCl pH 7.4, 25 °C; tested up to 50 μM

- KD [1]: 37.8 µM
- DC50 [2]: 13.1 µM
- KD [3]: 14.4 µM
- KD [4]: > 50 µM
- KD [5]: > 50 µM
- KD [6]: 95.1 µM
- KD ([7]; b20 prints 1.93): 1.95 µM
- KD [8]: 1.13 µM
- DC50 [9]: 14.7 µM
- DC50 [10]: 8.08 µM
- KD [11]: 47.9 µM
- KD [12]: 1.14 µM
- KD [13]: 43.3 µM
- DC50 [14]: 16.1 µM
- KD [15]: 91.4 µM
- DC50 [16]: 8.29 µM
- DC50 [17]: 3.19 µM
SMILES: CC1(C)CC[C@]2(C(=O)NCCCNCCNCCCN)CC[C@]3(C)C(=CC[C@@H]4[C@@]5(C)CC[C@H](O)C(C)(C)[C@@H]5CC[C@]43C)[C@@H]2C1

- KD [4]: > 50 µM
- KD [5]: > 50 µM
- KD [7]: 3.09 µM
SMILES: CC1(C)CC[C@]2(C(=O)NCCNC(=O)/C=C/c3ccc(O)c(O)c3)CC[C@]3(C)C(=CC[C@@H]4[C@@]5(C)CC[C@H](O)C(C)(C)[C@@H]5CC[C@]43C)[C@@H]2C1

- KD [4]: > 50 µM
- KD [5]: > 50 µM
- KD [7]: 5.01 µM
SMILES: Cc1cn(CC(=O)NCCCNCCNCCCNC(=O)[C@]23CCC(C)(C)C[C@H]2C2=CC[C@@H]4[C@@]5(C)CC[C@H](O)C(C)(C)[C@@H]5CC[C@@]4(C)[C@]2(C)CC3)c(=O)[nH]c1=O

- KD [18]: > 50 µM
- KD [19]: > 50 µM
- KD ([7]; tested up to 50 μM): > 50 µM
SMILES: CCOC(=O)Cn1cc(CNC(=O)[C@]23CCC(C)(C)C[C@H]2C2=CC[C@@H]4[C@@]5(C)CC[C@H](O)C(C)(C)[C@@H]5CC[C@@]4(C)[C@]2(C)CC3)nn1
